From the Deep4Chem optical property database
Several values for one entry are separate records, joined by “and”; a condition that tells them apart may be missing. Identical values can stand only once. Blank lines part the entries; values can stand above or below the compound they belong to.

Assay: solvent given as SMILES
[1] = in O=P(c1ccccc1)(c1ccccc1)c1ccccc1Oc1ccccc1P(=O)(c1ccccc1)c1ccccc1
[2] = in c1cc(-c2cccc(-n3c4ccccc4c4ccccc43)c2)cc(-n2c3ccccc3c3ccccc32)c1

fluorescence lifetime (in CC#N): 3.2 ns
Compound: N#C/C(=C\c1ccc(C#N)cc1)c1nc(-c2ccccc2)c(-c2ccccc2)s1

fluorescence lifetime (in ClCCl): 3.5 ns
Compound: O=P1(c2ccccc2)C(c2ccccc2)=Cc2cc3ccccc3cc21 (stereo not given)

fluorescence lifetime (in C1CCOC1): 1.98 ns
Compound: c1ccc(C2=C(c3ccccc3)[Si](c3ccccc3)(c3ccccc3)c3ccccc32)cc1

fluorescence lifetime (in C1CCOC1): 1 ns
Compound: O=C1c2cc(-c3ccccc3)ccc2-c2ccc(-c3ccccc3)cc21

fluorescence lifetime (in ClCCl): 1.2 ns
Compound: c1ccc(N(c2ccccc2)c2ccc(-c3ccc4c(c3)C3(c5cc(-c6ccc(N(c7ccccc7)c7ccccc7)cc6)ccc5-4)c4ccccc4N(c4ccccc4)c4ccccc43)cc2)cc1

fluorescence lifetime (in ClC(Cl)Cl): 26 ns
Compound: c1ccc2c(c1)ccc1ccc3ccc4ccccc4c3c12

fluorescence lifetime [2]: 35 ns
Compound: CC1(C)c2ccccc2N(c2ccc(-c3cc(C#N)c(C#N)cc3-c3ccc(N4c5ccccc5C(C)(C)c5ccccc54)cc3)cc2)c2ccccc21

fluorescence lifetime [2]: 14.6 ns
fluorescence lifetime (in c1ccc2c(c1)c1ccccc1n2-c1ccc2sc3ccc(-n4c5ccccc5c5ccccc54)cc3c2c1): 26.4 ns
fluorescence lifetime (in c1ccc2c(c1)c1ccccc1n2-c1ccc2sc3ccc(-n4c5ccccc5c5cccnc54)cc3c2c1): 15.8 ns
fluorescence lifetime (in c1ccc2c(c1)c1cccnc1n2-c1ccc2sc3ccc(-n4c5ccccc5c5cccnc54)cc3c2c1): 19.5 ns
Compound: Cc1cc(-n2c3ccccc3c3ccccc32)c(-n2c3ccccc3c3ccccc32)cc1C#N

fluorescence lifetime (in C1CCCCC1): 5.1 ns
fluorescence lifetime (in CCOC(C)=O): 4.6 ns
fluorescence lifetime (in CO): 4.3 ns
Compound: c1ccc2c(-n3cnc4ccccc43)cccc2c1

fluorescence lifetime (in ClCCl): 3.65 ns
Compound: c1cc2c3c(c1)ccc1[n+]3[B-]3(Oc4cccc5ccc6[n+](c45)[B-](O2)(O3)n2c-6cc3c4ccccc4c4ccccc4c32)n2c-1cc1c3ccccc3c3ccccc3c12

Continued, compound first:

Compound: CCCCCCCCN1C(=O)c2ccc3c4c(-c5ccc6c(c5)c5ccccc5n6-c5ccccc5)cc5c6c(cc(-c7ccc8c(c7)c7ccccc7n8-c7ccccc7)c(c7ccc(c2c37)C1=O)c64)C(=O)N(CCCCCCCC)C5=O
fluorescence lifetime (in ClC(Cl)Cl): 4.1 ns

Compound: F[B-]1(F)n2c(-c3cccs3)cc(-c3cccs3)c2N=C2C(c3cccs3)=CC(c3cccs3)=[N+]21
fluorescence lifetime (in C1CCOC1): 1.95 ns
fluorescence lifetime (in CC#N): 2.23 ns
fluorescence lifetime (in CS(C)=O): 2.31 ns
fluorescence lifetime (in Cc1ccccc1): 2.21 ns
fluorescence lifetime (in ClCCl): 2.36 ns

Compound: COc1ccc(-c2cc3c(s2)c(C)cc(=O)n3C)cc1
fluorescence lifetime (in ClCCl): 0.63 ns

Compound: O=C1/C(=C2\Sc3ccccc3C2=O)Sc2ccccc21
fluorescence lifetime (in C1COCCO1): 12.4 ns
fluorescence lifetime (in CN(C)C=O): 6.9 ns
fluorescence lifetime (in CO): 0.68 ns
fluorescence lifetime (in CS(C)=O): 0.17 ns
fluorescence lifetime (in c1ccccc1): 12.2 ns

Compound: C[Si](C)(C)C#CC(C#C[Si](C)(C)C)=Cc1ccc(C=C(C#C[Si](C)(C)C)C#C[Si](C)(C)C)cc1
fluorescence lifetime (in ClC(Cl)Cl): 0.6 ns

Compound: COc1cc2c(cc1-c1ccccc1)Cc1c3c(c4c(c1-2)-c1cc(OC)c(-c2ccccc2)cc1C4)C(=O)N(CCC(C)C)C3=O
fluorescence lifetime (in C1CCOC1): 3.87 ns
fluorescence lifetime (in CC#N): 6.33 ns
fluorescence lifetime (in CC(C)=O): 5.36 ns
fluorescence lifetime (in CCOC(C)=O): 3.99 ns
fluorescence lifetime (in CS(C)=O): 6.41 ns
fluorescence lifetime (in Cc1ccccc1): 2.55 ns
fluorescence lifetime (in ClC(Cl)Cl): 5.95 ns
fluorescence lifetime (in ClCCl): 5.64 ns

Compound: CC(C)c1cc(C(C)C)c(B2c3ccccc3Oc3cc(-n4c5ccccc5c5c6c(c7ccccc7n6-c6ccccc6)c6c(c7ccccc7n6-c6ccccc6)c54)ccc32)c(C(C)C)c1
fluorescence lifetime (in CC(C)c1cc(C(C)C)c(-c2ccc(-n3c4ccccc4n4c5ccccc5nc34)nc2)c(C(C)C)c1): 23.1 ns
fluorescence lifetime [1]: 24.7 ns

Compound: COC(=O)c1ccc(C#Cc2ccccc2)cc1
fluorescence lifetime (in C1CCCCC1): 0.59 ns
fluorescence lifetime (in CC#N): 0.52 ns
fluorescence lifetime (in CC(C)O): 0.64 ns
fluorescence lifetime (in CCCCCC): 0.55 ns
fluorescence lifetime (in CCCCCCCCCCCCCCCC): 0.55 ns
fluorescence lifetime (in CCCCCCCCCCCCCCCCCl): 0.59 ns
fluorescence lifetime (in CO): 0.62 ns

Compound: Nc1ccccc1C(=O)O
fluorescence lifetime (in C1CCCCC1): 5.7 ns
fluorescence lifetime (in CC#N): 6.9 ns
fluorescence lifetime (in CCO): 7.6 ns
fluorescence lifetime (in CS(C)=O): 8.7 ns
fluorescence lifetime (in O): 8.6 ns and 8.7 ns
fluorescence lifetime (in OCC(F)(F)F): 5.4 ns
fluorescence lifetime (in c1ccccc1): 6.3 ns

Compound: CCCCCCCCCCCCOc1cc2c3c(ccc4c5c(NC6CCCCC6)cc6c7c(ccc(c1c34)c75)C(=O)N(C1CCCCC1)C6=O)C(=O)N(C1CCCCC1)C2=O
fluorescence lifetime (in ClC(Cl)Cl): 0.8 ns

Compound: COc1ccc(C#Cc2c3cc4cc(C)sc4cc3c(C#Cc3ccc(OC)cc3)c3cc4cc(C)sc4cc23)cc1
fluorescence lifetime (in ClCCl): 7.7 ns

Compound: c1ccc2c(c1)CCc1ccccc1N2c1c2ccccc2c(N2c3ccccc3CCc3ccccc32)c2ccccc12
fluorescence lifetime (in Cc1ccccc1): 34 ns

Compound: CCN1C(=O)C(C2C(=O)c3c4ccccc4cc4cc5ccccc5c2c34)SC1=S (stereo not given)
fluorescence lifetime (in C1CCOC1): 11.8 ns
fluorescence lifetime (in CC#N): 7.8 ns
fluorescence lifetime (in CCCCCC): 12.8 ns
fluorescence lifetime (in Cc1ccccc1): 13.2 ns
fluorescence lifetime (in ClCCl): 10.4 ns

Compound: Cc1cc2nc3c(=O)n(C)c(=O)nc-3n(C)c2cc1C
fluorescence lifetime (in CC#N): 7.1 ns and 6.9 ns

Compound: C[N+]1=c2ccc3c(c2C(C)(C)CC1)Oc1cc2c(cc1C=3c1ccccc1C(=O)O)C(c1ccccc1C(=O)O)=c1ccc3c(c1O2)C(C)(C)CC[N+]=3C
fluorescence lifetime (in ClC(Cl)Cl): 2.48 ns

Compound: CCCCCCCCCCCCN1C(=O)c2ccc3c4ccc5c6c(ccc(c7ccc(c2c37)C1=O)c64)C(=O)N(CCCCCCCCCCCC)C5=O
fluorescence lifetime (in CN(C)C=O): 4.1 ns

Compound: COc1ccc(-c2nnc(-c3cc(-c4nnc(-c5ccc(OC)cc5)o4)c(-n4c5ccccc5c5ccccc54)cc3-n3c4ccccc4c4ccccc43)o2)cc1
fluorescence lifetime (in Cc1ccccc1): 5.1 ns
fluorescence lifetime [1]: 7.3 ns
